Measured values reported in publication PMC7068650, “In silico screening of GMQ-like compounds reveals guanabenz and sephin1 as new allosteric modulators of acid-sensing ion channel 3” (Biochemical Pharmacology, 2020).

Key:
Type in all cases: cell-based
[1] = molecular target: T1, acid-sensing ion channel 3 (rASIC3) (Rattus norvegicus, UniProt O35240); assay: whole-cell patch clamp, rASIC3-transfected CHO cells, activation at pH […] (estimated EC50; also potentiates pH […] and pH […] responses)
T1 construct: gene Asic3
T1 sequence (O35240 1-533): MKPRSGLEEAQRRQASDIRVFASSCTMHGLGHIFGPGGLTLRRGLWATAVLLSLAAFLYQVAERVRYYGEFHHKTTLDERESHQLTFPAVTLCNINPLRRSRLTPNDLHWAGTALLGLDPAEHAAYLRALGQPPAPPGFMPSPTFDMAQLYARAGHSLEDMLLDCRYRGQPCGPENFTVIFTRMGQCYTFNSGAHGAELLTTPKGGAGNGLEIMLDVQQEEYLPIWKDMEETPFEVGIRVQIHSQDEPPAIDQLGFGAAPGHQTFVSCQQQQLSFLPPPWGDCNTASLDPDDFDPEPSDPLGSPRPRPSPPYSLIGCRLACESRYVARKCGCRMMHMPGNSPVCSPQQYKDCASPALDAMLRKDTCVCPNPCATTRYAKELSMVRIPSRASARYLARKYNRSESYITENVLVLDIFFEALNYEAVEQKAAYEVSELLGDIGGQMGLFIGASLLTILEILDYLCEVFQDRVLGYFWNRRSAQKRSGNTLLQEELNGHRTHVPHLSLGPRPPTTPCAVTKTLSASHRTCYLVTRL

[2] = molecular target: T1, acid-sensing ion channel 3 (rASIC3); assay: whole-cell patch clamp, rASIC3-transfected CHO cells, activation at pH […] (reference agonist; estimated EC50)
[3] = molecular target: T1, acid-sensing ion channel 3 (rASIC3); assay: whole-cell patch clamp, rASIC3-transfected CHO cells, potentiation of the pH […] response at […] (no effect on pH […] response)

## N=C(N)N/N=C/c1c(Cl)cccc1Cl [GBZ, guanabenz]
[1]
  EC50: ~67.5 µM

## Cc1nc(NC(=N)N)nc2ccccc12 [GMQ, 2-guanidine-4-methylquinazoline]
[2]
  EC50: ~680 µM

## Clc1ccc2nsnc2c1NC1=NCCN1 [TIZ, tizanidine]
[3]
  whole-cell patch clamp, rASIC3-transfected CHO cells, potentiation of the pH 7 r: TIZ and GBZ produced a similar effect, inducing an increase in the peak and sustained currents
